From patent US8927724B2, “Isoxazole beta-lactamase inhibitors” (priority 2012, dated 2015)
Counter-ions that a name gives are not always drawn.

How the values were obtained:
[1] = system: bacterial strains that express the class D cephalosporinase OXA-15; experiment: Synergy MIC / standard BLI potentiation MIC assay, strains expressing OXA-15; format: cell-based, E. coli; conditions: in the presence of a β-lactam; comparator Avibactam (CCC)
Experimental: (§1) The experimental protocol was performed according to Clinical and Laboratory Standards Institute (CLSI) guidelines with modifications as described below (CLSI guidelines can be derived from the CLSI document M07-A9 published in January 2012: “Methods for Dilution Antimicrobial Susceptibility Tests for Bacteria That Grow Aerobically; Approved Standard-Ninth Edition”).
(§2) To prepare for MIC testing, frozen glycerol stocks of clinical isolates (Klebsiella pneumoniae, Eschericia coli, Enterobacter spp, Citrobacter spp, or Pseudomonas aeruginosa) were used to streak for isolated colonies on rich, non-selective, tryptic soy agar containing 5% sheep's blood (TSAB). Frozen glycerol stocks of laboratory engineered, isogenic E. coli strains, which contain cloned β-lactamase expressing plasmids were used to streak for isolated colonies on rich, selective LB agar supplemented with 25 μg/mL tetracycline to maintain the plasmid. All strains were incubated at 37° C. for 18-24 hrs.
(§3) On the day of testing, primary cultures were started by scraping off 5-10 colonies from the TSAB plates containing clinical strains or the tetracycline supplemented LB plates containing engineered strains. The clinical strain material was suspended in ˜5 mL of cation adjusted Mueller Hinton Broth (CAMHB) in 14 mL culture tubes. The engineered strain material was suspended in CAMHB (supplemented with 25 μg/mL tetracycline) in 14 mL culture tubes. All strains were incubated at 37° C. with aeration (200 rpm) for ˜2 hrs until the optical density at 600 nm (OD600) was >0.1.
(§4) The two compound components of the assay were each diluted in CAMHB and added to the 96-well broth microdilution assay plates. 50 μL of the β-lactam was added to each well of the assay plate in 2-fold dilutions with final concentrations ranging from 128 to 0.13 μg/mL. 25 μL of the BLI compound was added to all wells in the broth microdilution plates at a final concentration of 4 μg/mL. Inoculum cultures were prepared by standardizing the primary cultures to OD600=0.1 and then adding 20 μL of the adjusted primary culture per 1 mL CAMHB for clinical strains or CAMHB (supplemented with tetracycline at 100 μg/mL) for engineered strains, so that the final inoculum density was ˜10^5 colony forming units per milliliter. Diluted inoculum cultures were used to inoculate 25 μl, per well in 96-well broth microdilution assay plates. The final volume of each well was 100 μL and contained a β-lactam at different concentrations, a BLI compound at 4 μg/mL concentration, the bacterial culture at an OD600 of approximately 0.001 and when necessary tetracycline at 25 μg/mL.
(§5) Plates were incubated for 18-20 hours at 37° C. with aeration (200 rpm). Following incubation, growth was confirmed visually placing plates over a viewing apparatus (stand with a mirror underneath) and then OD600 was measured using a SpectraMax 340PC384 plate reader (Molecular Devices, Sunnyvale, Calif.). Growth was defined as turbidity that could be detected with the naked eye or achieving minimum OD600 of 0.1. MIC values were defined as the lowest concentration producing no visible turbidity.
The synergy MIC (sMIC) assay determines the concentration of the BLI required to potentiate the activity of a fixed concentration of a β-lactam antibiotic against β-lactamase producing bacterial strains. […]

[2] = system: bacterial strains that express KPC β-lactamases; experiment: Synergy MIC / standard BLI potentiation MIC assay, strains expressing KPC β-lactamases; format: cell-based; conditions: at least one KPC strain and/or better spectrum; in the presence of a β-lactam
Experimental: as §1, §2, §3, §4, §5
The synergy MIC (sMIC) assay determines the concentration of the BLI required to potentiate the activity of a fixed concentration of a β-lactam antibiotic against β-lactamase producing bacterial strains. The experimental protocol was performed according to Clinical and Laboratory Standards Institute (CLSI) guidelines with modifications as described below (CLSI guidelines can be derived from the CLSI document M07-A9 published in January 2012: “Methods for Dilution Antimicrobial Susceptibility Tests for Bacteria That Grow Aerobically; Approved Standard-Ninth Edition”). […]

Structure (SMILES)	activity against bacterial strains that express OXA-15, compared with Avibactam [1]	activity and/or spectrum of activity against bacterial strains that express KPC β-lactamases, compared with Avibactam [2]
N=C(N)NCC(O)c1cc([C@@H]2CC[C@@H]3CN2C(=O)N3OS(=O)(=O)O)no1 (single isomer, unassigned) [Compound 611, (2S,5R)-2-(5-((R*)-2-guanidino-1-hydroxyethyl)isoxazol-3-yl)-7-oxo-1,6-diazabicyclo[3.2.1]octan-6-yl hydrogen sulfate]	more active than Avibactam	more active than Avibactam
N=C(N)NCC(O)c1cc([C@@H]2CC[C@@H]3CN2C(=O)N3OS(=O)(=O)O)no1 (single isomer, unassigned) [Compound 612, (2S,5R)-2-(5-((S*)-2-guanidino-1-hydroxyethyl)isoxazol-3-yl)-7-oxo-1,6-diazabicyclo[3.2.1]octan-6-yl hydrogen sulfate]	–	more active than Avibactam
NCc1cc([C@@H]2CC[C@@H]3CN2C(=O)N3OS(=O)(=O)O)no1 [Compound 601, (2S,5R)-2-(5-(aminomethyl)isoxazol-3-yl)-7-oxo-1,6-diazabicyclo[3.2.1]octan-6-yl hydrogen sulfate]	–	more active than Avibactam
N=C(N)NCc1cc([C@@H]2CC[C@@H]3CN2C(=O)N3OS(=O)(=O)O)no1 [Compound 603, (2S,5R)-2-(5-(guanidinomethyl)isoxazol-3-yl)-7-oxo-1,6-diazabicyclo[3.2.1]octan-6-yl hydrogen sulfate]	more active than Avibactam	more active than Avibactam
NCCNC(=O)c1cc([C@@H]2CC[C@@H]3CN2C(=O)N3OS(=O)(=O)O)no1 [Compound 605, (2S,5R)-2-(5-((2-aminoethyl)carbamoyl)isoxazol-3-yl)-7-oxo-1,6-diazabicyclo[3.2.1]octan-6-yl hydrogen sulfate]	–	more active than Avibactam
N=C(N)N1CCC(c2cc([C@@H]3CC[C@@H]4CN3C(=O)N4OS(=O)(=O)O)no2)CC1 [Compound 607, (2S,5R)-2-(5-(1-carbamimidoylpiperidin-4-yl)isoxazol-3-yl)-7-oxo-1,6-diazabicyclo[3.2.1]octan-6-yl hydrogen sulfate]	–	more active than Avibactam
N=C(N)NCCNC(=O)c1cc([C@@H]2CC[C@@H]3CN2C(=O)N3OS(=O)(=O)O)no1 [Compound 608, (2S,5R)-2-(5-((2-guanidinoethyl)carbamoyl)isoxazol-3-yl)-7-oxo-1,6-diazabicyclo[3.2.1]octan-6-yl hydrogen sulfate]	–	more active than Avibactam
O=C1N2C[C@@H](CC[C@H]2c2cc(CCNC3CCNCC3)on2)N1OS(=O)(=O)O [Compound 609, (2S,5R)-7-oxo-2-(5-(2-(piperidin-4-ylamino)ethyl)isoxazol-3-yl)-1,6-diazabicyclo[3.2.1]octan-6-yl hydrogen sulfate]	–	more active than Avibactam
N=C(N)N1CCC(NCCc2cc([C@@H]3CC[C@@H]4CN3C(=O)N4OS(=O)(=O)O)no2)CC1 [Compound 610, (2S,5R)-2-(5-(2-((1-carbamimidoylpiperidin-4-yl)amino)ethyl)isoxazol-3-yl)-7-oxo-1,6-diazabicyclo[3.2.1]octan-6-yl hydrogen sulfate]	–	more active than Avibactam
N=C(N)NC1(Cc2cc([C@@H]3CC[C@@H]4CN3C(=O)N4OS(=O)(=O)O)no2)CC1 [Compound 613, (2S,5R)-2-(5-((1-guanidinocyclopropyl)methyl)isoxazol-3-yl)-7-oxo-1,6-diazabicyclo[3.2.1]octan-6-yl hydrogen sulfate]	–	more active than Avibactam
N=C(N)NCCCc1cc([C@@H]2CC[C@@H]3CN2C(=O)N3OS(=O)(=O)O)no1 [Compound 615, (2S,5R)-2-(5-(3-guanidinopropyl)isoxazol-3-yl)-7-oxo-1,6-diazabicyclo[3.2.1]octan-6-yl hydrogen sulfate]	–	more active than Avibactam
N[C@H]1C[C@@H](c2cc([C@@H]3CC[C@@H]4CN3C(=O)N4OS(=O)(=O)O)no2)C1 [Compound 616, (2S,5R)-2-(5-((1s,3R)-3-aminocyclobutyl)isoxazol-3-yl)-7-oxo-1,6-diazabicyclo[3.2.1]octan-6-yl hydrogen sulfate]	–	more active than Avibactam
N=C(N)N[C@H]1C[C@@H](c2cc([C@@H]3CC[C@@H]4CN3C(=O)N4OS(=O)(=O)O)no2)C1 [Compound 617, (2S,5R)-2-(5-((1s,3R)-3-guanidinocyclobutyl)isoxazol-3-yl)-7-oxo-1,6-diazabicyclo[3.2.1]octan-6-yl hydrogen sulfate]	–	more active than Avibactam
NCCNCCc1cc([C@@H]2CC[C@@H]3CN2C(=O)N3OS(=O)(=O)O)no1 [Compound 620, (2S,5R)-2-(5-(2-((2-aminoethyl)amino)ethyl)isoxazol-3-yl)-7-oxo-1,6-diazabicyclo[3.2.1]octan-6-yl hydrogen sulfate]	–	more active than Avibactam
N=C(N)NCCNCCc1cc([C@@H]2CC[C@@H]3CN2C(=O)N3OS(=O)(=O)O)no1 [Compound 621, (2S,5R)-2-(5-(2-((2-guanidinoethyl)amino)ethyl)isoxazol-3-yl)-7-oxo-1,6-diazabicyclo[3.2.1]octan-6-yl hydrogen sulfate]	–	more active than Avibactam
O=C1N2C[C@@H](CC[C@H]2c2cc(CNC3CNC3)on2)N1OS(=O)(=O)O [Compound 622, (2S,5R)-2-(5-((azetidin-3-ylamino)methyl)isoxazol-3-yl)-7-oxo-1,6-diazabicyclo[3.2.1]octan-6-yl hydrogen sulfate]	–	more active than Avibactam
O=C1N2C[C@@H](CC[C@H]2c2cc(CCNC3CNC3)on2)N1OS(=O)(=O)O [Compound 623, (2S,5R)-2-(5-(2-(azetidin-3-ylamino)ethyl)isoxazol-3-yl)-7-oxo-1,6-diazabicyclo[3.2.1]octan-6-yl hydrogen sulfate]	–	more active than Avibactam
O=C1N2C[C@@H](CC[C@H]2c2cc(COC3CNC3)on2)N1OS(=O)(=O)O [Compound 624, (2S,5R)-2-(5-((azetidin-3-yloxy)methyl)isoxazol-3-yl)-7-oxo-1,6-diazabicyclo[3.2.1]octan-6-yl hydrogen sulfate]	–	more active than Avibactam
O=C1N2C[C@@H](CC[C@H]2c2cc(CC3CCNCC3)on2)N1OS(=O)(=O)O [Compound 627, (2S,5R)-7-oxo-2-(5-(piperidin-4-ylmethyl)isoxazol-3-yl)-1,6-diazabicyclo[3.2.1]octan-6-yl hydrogen sulfate]	–	more active than Avibactam
